Consider two compounds from PMC9026148, “Pre-Clinical Study Evaluating Novel Protein Phosphatase 2A Activators as Therapeutics for Neuroblastoma” (Cancers, 2022).

The structures appear in SMILES notation. Read-outs that look alike come from different tables or passages of the source.

In general, IC50 refers to the concentration that gives 50% inhibition.

The test system of data set [1] is SK-N-AS, SK-N-BE(2), SH-EP, WAC2, COA6, COA129 cells. The data set can be described thus: CellTiter 96 proliferation, long-term cell lines and PDX cells. In kind it is cell-based, human. The following applies: increasing doses, 24 h. The method, then: (§1) CellTiter 96® Aqueous One Solution Cell Proliferation assay (Promega, Madison, WI, USA) was used to examine proliferation, and alamarBlue® assay (Thermo Fisher Scientific, Inc.) was used to evaluate viability. Cells, concentrations ranging from 5 × 10^3 to 1.5 × 10^4, depending on cell type due to wide variation in growth characteristics between established cell lines and PDX cells, were plated in 96-well plates and treated with increasing doses of 792 or 1154 for 24 h. CellTiter 96® or alamarBlue® dye (10 µL) was added for proliferation and viability assays, respectively. A microplate reader (Epoch Microplate Spectrophotometer, BioTek Instruments, Winooski, VT) measured absorbance at 490 nm for CellTiter 96® and at 570 nm for alamarBlue®, using 600 nm as a reference. […] Experiments were completed with at least three biologic replicates, and data reported as fold change ± SEM.

Data set [2] has as its system SK-N-BE(2) cells. The experiment in a line: CellTiter 96 proliferation, SK-N-BE(2). In kind it is cell-based. The following applies: Homo sapiens, SKNBE2, 24 h. The method, then:
as §1, with “SEM. […]” for “SEM.”
(§2) Supplemental Table S1: Neuroblastoma cells had the highest sensitivity to 792 and 1154.
(§3) (A) SK-N-AS and (B) SK-N-BE(2) cells (1.5 x 104) were plated in 96-well plates and treated with increasing doses of nine PP2A activating compounds for 24 hours. Compounds 792 and 1154 had the lowest LD50s of the nine compounds investigated in both cell lines.
(§4) Supplemental Figure S4: SK-N-AS cells were treated with FTY720 (0, 5 μM), 792 (10 μM), or 1154 (10 μM) for 24 hours and PP2A activity was measured. […]

The next data set concerns PP2A. The experiment in a line: PP2A immunoprecipitation phosphatase assay in SK-N-AS cells. The class given is cell-based, human. The note with it: 24 h; for PP2A activation compared with FTY720: 10 μM vs FTY720 5 μM, p ≤ 0.01; for PP2A activation (percent PP2A activity): 10 μM, control 100 ± 0%. The method, then:
SK-N-AS cells (1 × 10^6) were treated with FTY720 (5 μM), 792 (10 μM), or 1154 (10 μM) for 24 h and lysed using HEPES (AC215001000, Thermo Fisher Scientific Inc.), MgCl2 (MX0045-4, EM Science, Gibbstown, NJ, USA), KCl (02-003-741, Thermo Fisher Scientific Inc.), PMSF (Sigma Aldrich), dithiothreitol (EC-601, National Diagnostics, Atlanta, GA, USA), and Igepal CA-630 ([…], Sigma Aldrich) for 20 min on ice. Cell lysates were centrifuged at 17,000 rpm for 30 min at 4 °C. The commercially available PP2A Immunoprecipitation Phosphatase Assay Kit (17-313, EMD Millipore) has been used by other investigators to directly measure PP2A activity and was utilized per manufacturer's protocol to evaluate the activity of PP2A following treatment and compared to untreated cells. Experiments were completed at least in triplicate, and data reported as mean fold change ± standard error of the mean (SEM).

In the next data set the test system is SK-N-BE(2) flank tumors. The experiment in a line: SK-N-BE(2) flank tumor growth in athymic nude mice. The class given is in vivo, mouse. The following applies: 50 mg/kg bid po. The method, then:
SK-N-AS (1.8 × 10^6) or SK-N-BE(2) (1.5 × 10^6) cells in 25% Matrigel™ (BD Biosciences) were injected into the right flank of 6-week-old female athymic nude mice (Fredricks, Charles River, Wilmington, MA, USA) (n = 5 for SK-N-AS vehicle treated, n = 7 for SK-N-AS 792 or 1154 treatment and all SK-N-BE(2) experimental groups). Calipers were used to measure tumors three times per week, and volumes were calculated by the formula (width^2 × length)/2, where width was the smaller measurement. After tumors reached a volume of 100 mm^3, animals were randomized to three groups to receive 100 µL of either vehicle (N,N-dimethylacetamide (DMA, 271012, Sigma Aldrich) and Kolliphor® HS 15 (Solutol, 42996, Sigma Aldrich)), 792 (50 mg/kg in DMA and Solutol), or 1154 (50 mg/kg in DMA and Solutol) twice daily by oral gavage; dosing based on previously published in vivo cancer models. Animals were weighed weekly and were humanely euthanized in their home cages with CO2 and cervical dislocation when control tumors reached 2000 mm^3; either 9 (SK-N-AS tumors) or 19 days (SK-N-BE(2) tumors) following treatment initiation, or when IACUC parameters were met. Power analysis was completed prior to the study.

The test system of data set [3] is SK-N-BE(2) cells. The experiment in a line: alamarBlue viability, SK-N-BE(2). The class given is cell-based, human. The note with it: 24 h. The method, then: as §1, with “SEM. […]” for “SEM.”
as §2, §3, §4
(In general: Resazurin is reduced to fluorescent resorufin, in cell work by metabolically active cells.)

A further data set has as its target T1, CYP-3A4 (Homo sapiens, UniProt P08684).
T1 construct: tissue Bioduro, LLC (contract lab that ran the assay); host or cells: human liver microsomes
The data set can be described thus: Time-dependent CYP-3A4 inhibition (midazolam turnover, human liver microsomes). In kind it is in vitro ADME. The following applies: for IC50: 50% inhibition of midazolam turnover. The method, then:
Time-dependent CYP-3A4 inhibition assays were performed by Bioduro, LLC. In brief, the test compound is pre-incubated with human liver microsomes (0.25 mg/mL in reaction) and NADPH (0.5 mM in reaction) for 5, 30, and 60 min to allow metabolite formation. Midazolam, a known standard substrate of CYP-3A4, is added to give 2.5 µM reaction concentration, and consumption (microsome stability) of midazolam is assayed as above.
In general terms: Liver microsomes are a subcellular fraction often used to study metabolism.

[4] abbreviates: 5 min pre-incubation, read-out: IC50 at Pre-incubation time 5 min.
Where [5] appears, read: 30 min pre-incubation, read-out: IC50 at Pre-incubation time 30 min.
Setting [6] is: 60 min pre-incubation, read-out: IC50 at Pre-incubation time 60 min.

T1 sequence (P08684 whole entry): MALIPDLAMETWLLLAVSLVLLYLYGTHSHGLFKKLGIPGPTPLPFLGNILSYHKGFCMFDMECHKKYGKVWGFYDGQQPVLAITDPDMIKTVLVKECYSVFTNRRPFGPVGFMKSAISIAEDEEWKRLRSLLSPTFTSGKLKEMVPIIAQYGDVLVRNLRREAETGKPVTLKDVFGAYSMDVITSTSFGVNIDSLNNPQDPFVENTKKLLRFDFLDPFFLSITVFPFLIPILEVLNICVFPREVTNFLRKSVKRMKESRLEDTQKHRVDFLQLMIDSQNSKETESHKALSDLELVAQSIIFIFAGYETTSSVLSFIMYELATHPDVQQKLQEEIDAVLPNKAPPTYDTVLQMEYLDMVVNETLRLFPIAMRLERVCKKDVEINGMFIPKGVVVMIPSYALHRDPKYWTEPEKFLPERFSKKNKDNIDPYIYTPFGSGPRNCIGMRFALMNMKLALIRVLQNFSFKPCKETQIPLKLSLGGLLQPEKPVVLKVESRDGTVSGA

As to `O=S(=O)(NC1CCCC(N2c3ccccc3CCc3ccccc32)C1O)c1ccc(OC(F)(F)F)cc1` (centres unmarked) [DBK-1154], in data set [1], the proliferation entry was “significantly decreased proliferation”. In addition, the IC50 with SK-N-BE(2) cells [2] worked out at 23.8 µM; on CYP-3A4 (setting [4]) it was 42 µM; on CYP-3A4 (setting [5]) it was 27 µM; at CYP-3A4 (setting [6]), 18 µM. In addition, the “PP2A activation compared with FTY720” value in the data set on PP2A is reported as “significantly more than FTY720”. The “PP2A activation (percent PP2A activity)” value in the data set with PP2A is given as 134.8 ± 18.4%. In the data set with SK-N-BE(2) flank tumors (by day 19, vehicle 2362 ± 53), this compound had a tumor volume of 1628 ± 362 mm^3. Also, in the data set on SK-N-BE(2) cells [3], the LD50 was found to be 16.6 µM. Besides, the IC50 shift on CYP-3A4 (human, human liver microsomes, probe midazolam (2.5 µM), ratio IC50 5 min / 60 min pre-incubation) came out at 2.4.

In the case of `O=S(=O)(N[C@H]1COC[C@@H](n2c3ccc(Cl)cc3c3cc(Cl)ccc32)[C@@H]1O)c1ccc(OC(F)(F)F)cc1` [ATUX-792], in data set [1], the proliferation entry is reported as “significantly decreased proliferation”. Besides, the IC50 with SK-N-BE(2) cells [2] is 17.2 µM; on CYP-3A4 (setting [4]) it was > 50 µM; on CYP-3A4 (setting [5]), > 50 µM; on CYP-3A4 (setting [6]), > 50 µM. Besides, the “PP2A activation compared with FTY720” value in the data set on PP2A is on record as “significantly more than FTY720”. In the data set with PP2A, the “PP2A activation (percent PP2A activity)” value was 117.5 ± 5.6%. In the data set on SK-N-BE(2) flank tumors (after 17 days, vehicle 2362 ± 53), this compound registered a tumor volume of 1383 ± 243 mm^3. The compound also came in with an LD50 in the data set on SK-N-BE(2) cells [3] of 17.2 µM. Moreover, the “CYP-3A4 inhibition” value at CYP-3A4 (time-dependent inhibition assay) is reported as “no CYP-3A4 inhibition”.
